From patent US20260226086A1, “COMPOUNDS AND COMPOSITIONS AS STAT3 DEGRADERS AND USES THEREOF” (REGENTS OF THE UNIVERSITY OF MICHIGAN, priority 2023, published 2026)
pIC50: −log10 of the molar value. Like-named read-outs stand apart in the source and are kept apart here.

What was measured:
Assay type in all cases: cell-based
[1] = molecular target: T1, STAT3 (Homo sapiens, UniProt P40763); test: HiBiT assay, STAT3 degradation in STAT3-HiBiT KI HeLa cells; conditions: for DC50: read-out: STAT3 Degradation (HeLa 24 h HiBit) DC50
T1 construct: This cell line is a clone created by using CRISPR-Cas9 to fuse HiBiT to the 3′ end of STAT3 in HeLa cells; host or cells: STAT3-HiBiT KI HeLa cell line (CRISPR-Cas9 knock-in clone)
How it was run: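 HeLa cells with CRISPR knock-in of HiBiT at the STAT3 C-terminus, 20000 cells/well, treated with serial compound dilutions for 24 h at 37 °C, 5% CO2. Remaining STAT3 read by Nano-Glo HiBiT lytic luminescence versus untreated cells; IC50 from four-parameter nonlinear fit of triplicate means.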

[2] = system: SUP-M2 cells; test: CellTiter-Glo 2.0 cell viability assay, SUP-M2; conditions: 4 days
How it was run: (§1)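 1000 cells per well exposed to serially diluted compounds for 4 days at 37 °C, 5% CO2. Viability measured by CellTiter-Glo 2.0 luminescence versus untreated cells; IC50 from four-parameter nonlinear fit of triplicate means.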

[3] = system: SU-DHL-1 cells; test: CellTiter-Glo 2.0 cell viability assay, SU-DHL-1; conditions: 4 days
How it was run: as §1

T1 sequence (P40763 whole entry): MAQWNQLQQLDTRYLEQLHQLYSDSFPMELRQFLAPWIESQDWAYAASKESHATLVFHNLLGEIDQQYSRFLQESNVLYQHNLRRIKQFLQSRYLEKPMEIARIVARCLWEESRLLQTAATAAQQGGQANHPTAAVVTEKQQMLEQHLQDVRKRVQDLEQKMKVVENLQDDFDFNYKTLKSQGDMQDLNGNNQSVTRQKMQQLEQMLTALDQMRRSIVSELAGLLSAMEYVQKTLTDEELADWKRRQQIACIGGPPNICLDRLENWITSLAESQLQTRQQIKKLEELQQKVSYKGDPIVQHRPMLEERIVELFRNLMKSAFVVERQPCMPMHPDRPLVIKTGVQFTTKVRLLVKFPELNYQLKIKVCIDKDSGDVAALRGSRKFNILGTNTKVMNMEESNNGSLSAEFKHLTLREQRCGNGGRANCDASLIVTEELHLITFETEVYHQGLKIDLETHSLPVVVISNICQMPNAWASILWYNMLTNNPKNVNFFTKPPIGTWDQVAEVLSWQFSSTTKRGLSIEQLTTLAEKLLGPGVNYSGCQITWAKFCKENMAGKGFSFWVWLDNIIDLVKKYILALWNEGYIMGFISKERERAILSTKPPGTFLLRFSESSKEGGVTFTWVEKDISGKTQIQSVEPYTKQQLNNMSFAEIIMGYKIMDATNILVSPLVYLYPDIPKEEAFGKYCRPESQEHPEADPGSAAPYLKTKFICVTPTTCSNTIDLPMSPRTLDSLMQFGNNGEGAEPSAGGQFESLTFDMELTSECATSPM

## CC(=O)N1CC[C@H]2CC[C@@H](C(=O)N[C@@H](CCC(N)=O)COc3cccc(CCCCNC(=O)C[C@H](NC(=O)[C@@H]4C[C@@H](O)CN4C(=O)[C@H](C4CCCCC4)n4cc(C5CC5)nn4)c4ccc(-c5scnc5C)cc4)c3Cl)N2C(=O)[C@@H](NC(=O)c2cc3cc(C(=O)P(=O)(O)O)ccc3[nH]2)C1 [Compound 36, (2-(((5S,8S,10aR)-3-acetyl-8-(((S)-5-amino-1-(2-chloro-3-(4-((S)-3-((2S,4R)-1-((S)-2-cyclohexyl-2-(4-cyclopropyl-1H-1,2,3-triazol-1-yl)acetyl)-4-hydroxypyrrolidine-2-carboxamido)-3-(4-(4-methylthiazol-5-yl)phenyl)propanamido)butyl)phenoxy)-5-oxopentan-2-yl)carbamoyl)-6-oxodecahydropyrrolo[1,2-a][1,5]diazocin-5-yl)carbamoyl)-1H-indole-5-carbonyl)phosphonic acid]
[1]; 24 h
  Dmax at 1 µM: > 80%
  DC50: < 10 nM
[2]; SUP-M2, 96 h
  pIC50: > 8.00
[3]; Homo sapiens, 96 h
  pIC50: > 8.00

## Cc1ncsc1-c1ccc([C@H](C)NC(=O)[C@@H]2C[C@@H](O)CN2C(=O)[C@@H](NC(=O)CCCCC(=O)N2CC[C@H]3CC[C@@H](C(=O)N[C@@H](CCC(N)=O)C(=O)NC(c4ccccc4)c4ccccc4)N3C(=O)[C@@H](NC(=O)c3cc4cc(C(=O)P(=O)(O)O)ccc4[nH]3)C2)C(C)(C)C)cc1 [Compound 49, (2-(((5S,8S,10aR)-8-(((S)-5-amino-1-(benzhydrylamino)-1,5-dioxopentan-2-yl)carbamoyl)-3-(6-(((S)-1-((2S,4R)-4-hydroxy-2-(((S)-1-(4-(4-methylthiazol-5-yl)phenyl)ethyl)carbamoyl)pyrrolidin-1-yl)-3,3-dimethyl-1-oxobutan-2-yl)amino)-6-oxohexanoyl)-6-oxodecahydropyrrolo[1,2-a][1,5]diazocin-5-yl)carbamoyl)-1H-indole-5-carbonyl)phosphonic acid]
[1]; 24 h
  DC50: 10 to 100 nM
[2]; SUP-M2, 96 h
  pIC50: 7.00 to 8.00
[3]; Homo sapiens, 96 h
  pIC50: 7.00 to 8.00

## CCS(=O)(=O)c1ccc(CNC(=O)[C@H](CCC(N)=O)NC(=O)[C@@H]2CC[C@@H]3CCN(C(=O)[C@H]4CC[C@H](c5cn([C@H](C(=O)N6C[C@H](O)C[C@H]6C(=O)N[C@@H](C)c6ccc(-c7scnc7C)cc6)C(C)(C)C)nn5)CC4)C[C@H](NC(=O)c4cc5cc(C(=O)P(=O)(O)O)ccc5[nH]4)C(=O)N32)cc1 [Compound 18, (2-(((5S,8S,10aR)-8-(((S)-5-amino-1-((4-(ethylsulfonyl)benzyl)amino)-1,5-dioxopentan-2-yl)carbamoyl)-3-((1S,4S)-4-(1-((S)-1-((2S,4R)-4-hydroxy-2-(((S)-1-(4-(4-methylthiazol-5-yl)phenyl)ethyl)carbamoyl)pyrrolidin-1-yl)-3,3-dimethyl-1-oxobutan-2-yl)-1H-1,2,3-triazol-4-yl)cyclohexane-1-carbonyl)-6-oxodecahydropyrrolo[1,2-a][1,5]diazocin-5-yl)carbamoyl)-1H-indole-5-carbonyl)phosphonic acid]
[1]; 24 h
  Dmax at 1 µM: > 80%
  DC50: 10 to 100 nM
[2]; SUP-M2, 96 h
  pIC50: 6.00 to 7.00
[3]; Homo sapiens, 96 h
  pIC50: 7.00 to 8.00

## Cc1ncsc1-c1ccc([C@H](C)NC(=O)[C@@H]2C[C@@H](O)CN2C(=O)[C@@H](n2cc(CCc3cccc(OC[C@H](CCC(N)=O)NC(=O)[C@@H]4CC[C@@H]5CCN(C(=O)C(C)C)C[C@H](NC(=O)c6cc7cc(C(=O)P(=O)(O)O)ccc7[nH]6)C(=O)N54)c3Cl)nn2)C(C)(C)C)cc1 [Compound 3, (2-(((5S,8S,10aR)-8-(((S)-5-amino-1-(2-chloro-3-(2-(1-((S)-1-((2S,4R)-4-hydroxy-2-(((S)-1-(4-(4-methylthiazol-5-yl)phenyl)ethyl)carbamoyl)pyrrolidin-1-yl)-3,3-dimethyl-1-oxobutan-2-yl)-1H-1,2,3-triazol-4-yl)ethyl)phenoxy)-5-oxopentan-2-yl)carbamoyl)-3-isobutyryl-6-oxodecahydropyrrolo[1,2-a][1,5]diazocin-5-yl)carbamoyl)-1H-indole-5-carbonyl)phosphonic acid]
[1]; 24 h
  Dmax at 1 µM: > 80%
  DC50: 10 to 100 nM
[2]; SUP-M2, 96 h
  pIC50: 7.00 to 8.00
[3]; Homo sapiens, 96 h
  pIC50: 7.00 to 8.00

## CCS(=O)(=O)c1ccc(CNC(=O)[C@H](CCC(N)=O)NC(=O)[C@@H]2CC[C@@H]3CCN(C(=O)CCCCc4cn([C@@H](C(=O)N5C[C@H](O)C[C@H]5C(=O)N[C@H](C)c5ccc(-c6scnc6C)cc5)C5CCOCC5)nn4)C[C@H](NC(=O)c4cc5cc(C(=O)P(=O)(O)O)ccc5[nH]4)C(=O)N32)cc1 [Compound 24, (2-(((5S,8S,10aR)-8-(((S)-5-amino-1-((4-(ethylsulfonyl)benzyl)amino)-1,5-dioxopentan-2-yl)carbamoyl)-3-(5-(1-((R)-2-((2S,4R)-4-hydroxy-2-(((R)-1-(4-(4-methylthiazol-5-yl)phenyl)ethyl)carbamoyl)pyrrolidin-1-yl)-2-oxo-1-(tetrahydro-2H-pyran-4-yl)ethyl)-1H-1,2,3-triazol-4-yl)pentanoyl)-6-oxodecahydropyrrolo[1,2-a][1,5]diazocin-5-yl)carbamoyl)-1H-indole-5-carbonyl)phosphonic acid]
[1]; 24 h
  Dmax at 1 µM: > 80%
[1]
  DC50: < 10 nM
[2]; SUP-M2, 96 h
  pIC50: > 8.00
[3]; Homo sapiens, 96 h
  pIC50: > 8.00

## CC(=O)N1CC[C@H]2CC[C@@H](C(=O)N[C@@H](CCC(N)=O)COc3cccc(CCCc4cn([C@H](C(=O)N5C[C@H](O)C[C@H]5C(=O)N[C@@H](CN5CCOCC5)c5ccc(-c6scnc6C)cc5)C(C)(C)C)nn4)c3Cl)N2C(=O)[C@@H](NC(=O)c2cc3cc(C(=O)P(=O)(O)O)ccc3[nH]2)C1 [Compound 5, (2-(((5S,8S,10aR)-3-acetyl-8-(((S)-5-amino-1-(2-chloro-3-(3-(1-((S)-1-((2S,4R)-4-hydroxy-2-(((R)-1-(4-(4-methylthiazol-5-yl)phenyl)-2-morpholinoethyl)carbamoyl)pyrrolidin-1-yl)-3,3-dimethyl-1-oxobutan-2-yl)-1H-1,2,3-triazol-4-yl)propyl)phenoxy)-5-oxopentan-2-yl)carbamoyl)-6-oxodecahydropyrrolo[1,2-a][1,5]diazocin-5-yl)carbamoyl)-1H-indole-5-carbonyl)phosphonic acid]
[1]; 24 h
  Dmax at 1 µM: > 80%
  DC50: 10 to 100 nM
[2]; SUP-M2, 96 h
  pIC50: 7.00 to 8.00
[3]; Homo sapiens, 96 h
  pIC50: 7.00 to 8.00

## Cc1ncsc1-c1ccc([C@H](C)NC(=O)[C@@H]2C[C@@H](O)CN2C(=O)[C@@H](NC(=O)CCCCCCCCC(=O)N2CC[C@H]3CC[C@@H](C(=O)N[C@@H](CCC(N)=O)C(=O)NC(c4ccccc4)c4ccccc4)N3C(=O)[C@@H](NC(=O)c3cc4cc(C(=O)P(=O)(O)O)ccc4[nH]3)C2)C(C)(C)C)cc1 [Compound 53, (2-(((5S,8S,10aR)-8-(((S)-5-amino-1-(benzhydrylamino)-1,5-dioxopentan-2-yl)carbamoyl)-3-(10-(((S)-1-((2S,4R)-4-hydroxy-2-(((S)-1-(4-(4-methylthiazol-5-yl)phenyl)ethyl)carbamoyl)pyrrolidin-1-yl)-3,3-dimethyl-1-oxobutan-2-yl)amino)-10-oxodecanoyl)-6-oxodecahydropyrrolo[1,2-a][1,5]diazocin-5-yl)carbamoyl)-1H-indole-5-carbonyl)phosphonic acid]
[1]; 24 h
  DC50: 100 to 1000 nM
[2]; SUP-M2, 96 h
  pIC50: 6.00 to 7.00
[3]; Homo sapiens, 96 h
  pIC50: 6.00 to 7.00

## Cc1ncsc1-c1ccc([C@H](C)NC(=O)[C@@H]2C[C@@H](O)CN2C(=O)[C@@H](n2cc(CCCCC(=O)N3CC[C@H]4CC[C@@H](C(=O)N[C@@H](CCC(N)=O)C(=O)NC(c5ccccc5)c5ccccc5)N4C(=O)[C@@H](NC(=O)c4cc5cc(C(=O)P(=O)(O)O)ccc5[nH]4)C3)nn2)C(C)(C)C)cc1 [Compound 57, (2-(((5S,8S,10aR)-8-(((S)-5-amino-1-(benzhydrylamino)-1,5-dioxopentan-2-yl)carbamoyl)-3-(5-(1-((S)-1-((2S,4R)-4-hydroxy-2-(((S)-1-(4-(4-methylthiazol-5-yl)phenyl)ethyl)carbamoyl)pyrrolidin-1-yl)-3,3-dimethyl-1-oxobutan-2-yl)-1H-1,2,3-triazol-4-yl)pentanoyl)-6-oxodecahydropyrrolo[1,2-a][1,5]diazocin-5-yl)carbamoyl)-1H-indole-5-carbonyl)phosphonic acid]
[1]; 24 h
  DC50: 100 to 1000 nM
[2]
  pIC50: 6.00 to 7.00
[3]
  pIC50: 6.00 to 7.00

## Cc1ncsc1-c1ccc([C@H](C)NC(=O)[C@@H]2C[C@@H](O)CN2C(=O)[C@@H](NC(=O)CCC(=O)N2CC[C@H]3CC[C@@H](C(=O)N[C@@H](CCC(N)=O)C(=O)NC(c4ccccc4)c4ccccc4)N3C(=O)[C@@H](NC(=O)c3cc4cc(C(=O)P(=O)(O)O)ccc4[nH]3)C2)C(C)(C)C)cc1 [Compound 47, (2-(((5S,8S,10aR)-8-(((S)-5-amino-1-(benzhydrylamino)-1,5-dioxopentan-2-yl)carbamoyl)-3-(4-(((S)-1-((2S,4R)-4-hydroxy-2-(((S)-1-(4-(4-methylthiazol-5-yl)phenyl)ethyl)carbamoyl)pyrrolidin-1-yl)-3,3-dimethyl-1-oxobutan-2-yl)amino)-4-oxobutanoyl)-6-oxodecahydropyrrolo[1,2-a][1,5]diazocin-5-yl)carbamoyl)-1H-indole-5-carbonyl)phosphonic acid]
[1]; 24 h
  DC50: 100 to 1000 nM
[2]; SUP-M2, 96 h
  pIC50: 6.00 to 7.00
[3]; Homo sapiens, 96 h
  pIC50: 6.00 to 7.00
